Assay results: patent publication US20150104392A1, “COMPOSITIONS, BIOMARKERS AND THEIR USE IN THE TREATMENT OF CANCER” (Aptose Biosciences Inc., priority 2013, published 2015)

Legend:
CA46 = assay: XTT antiproliferative assay; format: cell-based; details: Homo sapiens, 120 h; CA46, Non-Hodgkin's Lymphoma; 5 days incubation
Procedure: (§1) Antiproliferative activity of LOR-253 was determined by XTT assay as follows. Adherent cells (2×10^3/well) in 100 μL of growth medium were seeded in 96-well cell culture plates and incubated overnight at 37° C. The medium was removed and replaced with a total volume of 100 μL growth medium containing LOR-253 (or 0.1% DMSO vehicle control), as described in the respective experiments. Suspension cells were plated (4-6×10^3/well) in 50 μL growth medium, and 50 μL growth medium containing LOR-253 (or 0.1% DMSO vehicle control) was added to each well. After incubation of the cells at 37° C. for 5 days, cell viability was quantitated with the use of sodium 3′-[1-(phenylamino-carbonyl)-3,4-tetrazolium}-bis(4-methoxy-6-nitro)benzene sulfonic acid hydrate (XTT) colorimetric assay (Roche). XTT labeling reagent (1 mg/mL) was mixed with electron-coupling reagent, following the manufacturer's instructions, and 50 μL of the mixture was added directly to the cells. The plates were further incubated at 37° C. for 4 h, and the absorbance of each well was measured at 490 nm with a multiwell spectrophotometer (Bio-Tek Instruments Inc.). The data were adjusted relative to the blank and expressed as a percentage of cell growth compared with the vehicle control. (Ref. Huesca et al., Mol Cancer Ther. 2009. 8:2586-96; Lorus publication on LOR-133)

CCRF-CEM = assay: XTT antiproliferative assay; format: cell-based; details: Homo sapiens, 120 h, Acute lymphoblastic leukemia, 5 days incubation
Procedure: as §1

HEL92.1.7 = assay: XTT antiproliferative assay; format: cell-based; details: Homo sapiens, HEL 92.1.7, 120 h; HEL92.1.7, Acute myeloid leukemia; 5 days incubation
Procedure: as §1

HL-60 = assay: XTT antiproliferative assay; format: cell-based; details: Homo sapiens, 120 h; HL-60, Acute myeloid leukemia; 5 days incubation
Procedure: as §1

HuNS1 = assay: XTT antiproliferative assay; format: cell-based; details: 120 h; HuNS1, Multiple myeloma; 5 days incubation
Procedure: as §1

Jurkat = assay: XTT antiproliferative assay; format: cell-based; details: Homo sapiens, 120 h, Acute lymphoblastic leukemia, 5 days incubation
Procedure: as §1

K562 = assay: XTT antiproliferative assay; format: cell-based; details: Homo sapiens, 120 h; K562, Chronic Myelogenous Leukemia; 5 days incubation
Procedure: as §1

KG-1 = assay: XTT antiproliferative assay; format: cell-based; details: Homo sapiens, 120 h; KG-1, Acute myeloid leukemia; 5 days incubation
Procedure: as §1

Kasumi-1 = assay: XTT antiproliferative assay; format: cell-based; details: Homo sapiens, 120 h; Kasumi-1, Acute myeloid leukemia; 5 days incubation
Procedure: as §1

MM.1R = assay: XTT antiproliferative assay; format: cell-based; details: 120 h, Multiple myeloma, 5 days incubation
Procedure: as §1

MV-4-11 = assay: XTT antiproliferative assay; format: cell-based; details: Homo sapiens, MV4-11, 120 h; MV-4-11, Acute myeloid leukemia; 5 days incubation
Procedure: as §1

Mino = assay: XTT antiproliferative assay; format: cell-based; details: Homo sapiens, 120 h, Non-Hodgkin's Lymphoma, 5 days incubation
Procedure: as §1

NOMO-1 = assay: XTT antiproliferative assay; format: cell-based; details: Homo sapiens, 120 h; NOMO-1, Acute myeloid leukemia; 5 days incubation
Procedure: as §1

OCI-AML2 = assay: XTT antiproliferative assay; format: cell-based; details: Homo sapiens, 120 h; OCI-AML2, Acute myeloid leukemia; 5 days incubation
Procedure: as §1

RL = assay: XTT antiproliferative assay; format: cell-based; details: Homo sapiens, 120 h, Non-Hodgkin's Lymphoma, 5 days incubation
Procedure: as §1

Ramos = assay: XTT antiproliferative assay; format: cell-based; details: Homo sapiens, 120 h, Non-Hodgkin's Lymphoma, 5 days incubation
Procedure: as §1

SKM-1 = assay: XTT antiproliferative assay; format: cell-based; details: Homo sapiens, 120 h; SKM-1, Acute myeloid leukemia; 5 days incubation
Procedure: as §1

THP-1 = assay: XTT antiproliferative assay; format: cell-based; details: Homo sapiens, 120 h; THP-1, Acute myeloid leukemia; 5 days incubation
Procedure: as §1

Toledo = assay: XTT antiproliferative assay; format: cell-based; details: Homo sapiens, 120 h, Non-Hodgkin's Lymphoma, 5 days incubation
Procedure: as §1

U266B1 = assay: XTT antiproliferative assay; format: cell-based; details: 120 h; U266B1, Multiple myeloma; 5 days incubation
Procedure: as §1

THP1 cells = assay: BAX/BCL2 expression, quantitative RT-PCR; format: cell-based, human; details: 0.5 μM, 48 hours
Procedure: THP1 cells were treated with DMSO (vehicle control) or 0.5 μM LOR-253 for 48 hours. Total RNA was extracted using the TRIzol Plus RNA Purification kit (Ambion, Life Technologies), according to the manufacturer's instructions. First strand cDNA was synthesized from 1-2 ug total RNA using random hexamer primers (Invitrogen) and the SuperScript II Reverse Transcriptase kit (Invitrogen). Quantitative RT-PCR was performed in the ABI Prism 7000 Sequence Detection System using cDNAs and human TaqMan Gene Expression Assay primer/probe sets for BCL2-associated X protein (BAX), B-cell CLL/Lymphoma 2 (BCL2) and the ABI TaqMan Universal PCR master mix protocol. Gene expression was normalized with β-actin gene expression in the same sample, and fold changes in BAX or BCL2 were expressed relative to the corresponding expression level in the DMSO treated samples using the comparative CT method.

H226 xenograft = H226 xenograft model, dose and schedule; format: in vivo, mice; details: groups 2, 3 and 4: 10 mg/kg-iv, schedules 3T-12B-3T, 2T-5B-2T, 3T-5B-3T, 2 cycles
CYP450 enzymes = assay: CYP450 enzyme inhibition; format: in vitro ADME

Cc1[nH]c2ccc(F)cc2c1-c1nc2c3cccnc3c3ncccc3c2[nH]1 [LOR-253]
IC50 (CA46): 190 nM | IC50 (CCRF-CEM): 39 nM | IC50 (HEL92.1.7): 305 nM | IC50 (HL-60): 46 nM | IC50 (HuNS1): 72 nM | IC50 (Jurkat): 71 nM | IC50 (K562): 250 nM | IC50 (KG-1): 33 nM | IC50 (Kasumi-1): 6.9 nM | IC50 (MM.1R): 150 nM | IC50 (MV-4-11): 69 nM | IC50 (Mino): 140 nM | IC50 (NOMO-1): 121 nM | IC50 (OCI-AML2): 76 nM | IC50 (RL): 190 nM | IC50 (Ramos): 125 nM | IC50 (SKM-1): 145 nM | IC50 (THP-1): 77 nM | IC50 (Toledo): 77 nM | IC50 (U266B1): 180 nM | BAX expression (fold change vs DMSO) (THP1 cells): Elevation of BAX | BCL2 expression (fold change vs DMSO) (THP1 cells): repression of BCL2 | tumor size, H226 xenograft (H226 xenograft): effectively treated | inhibition of CYP450 enzymes (CYP450 enzymes): no significant inhibition
